Measured values published in US20080268024A1, “Compositions for Oral and/or Topical Administration” (priority 2004, published 2008).

Experiments:
Lactobacterium = assay: Stimulation of growth: enumeration of lactobacilli in vitro in human fecal homogenate culture; assay type: cell-based, Lactobacillus spp; conditions: 1% test substance or mixture, human fecal homogenate in diluted WC broth, incubated up to 24 hours, control 2.8 × 10^5
Experimental: (§1) The stimulation of growth of micro-organisms has been studied by enumerating bifidobacterium and lactobacilli in vitro in the presence of various test substances:
(§2) Aliquots (1 mL) of human fecal homogenates (10 g per 100 mL diluent) were added to diluted WC broth (diluted 50:50 with 0.05M phosphate buffer) to which were added the test mixtures and a lactobacillus or bifidobacterium strain. For each of the combinations, parallel tubes were prepared with one set being inoculated with Bifidobacterium spp or Lactobacillus spp. All mixtures were then incubated for up to 24 hours and bacterial numbers determined. The results are presented in Tables 1 and 2 (amount of extract calculated on active content): […]

Bifidobacterium = assay: Stimulation of growth: enumeration of Bifidobacterium in vitro in human fecal homogenate culture; assay type: cell-based, Bifidobacterium spp; conditions: 1% test substance or mixture, human fecal homogenate in diluted WC broth, incubated up to 24 hours, control 1.0 × 10^6
Experimental: as §1, §2

Row | Compound | Bacterial numbers CFU/ml (Lactobacterium) [× × 10^6 CFU/ml] | Bacterial numbers CFU/ml (Bifidobacterium) [× × 10^7 CFU/ml]
1 | OC[C@H]1O[C@@H](O[C@H]2[C@H](O)[C@@H](O)[C@@H](O[C@]3(CO)O[C@H](CO)[C@@H](O)[C@@H]3O)O[C@@H]2CO)[C@H](O)[C@@H](O)[C@H]1O [C2, Lactosucrose] | 1.1 | 1.1
2 | Lactolin [C3] | 1.5 | 1.6
